Measurements: patent US7053107B2, “Indazole compounds and pharmaceutical compositions for inhibiting protein kinases, and methods for their use” (Agouron Pharmaceuticals, Inc., priority 2002, dated 2006)

Legend:
[1] = test system: human umbilical vein endothelial cells (HUVEC); experiment: HUVEC Proliferation Assay (VEGF-stimulated); type: cell-based
In short: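 Serum-starved HUVEC (passage 3–4, F12K + 1% FBS, 24 h) pretreated 1 h with compound (final DMSO 0.1%), then stimulated with 6 ng/mL VEGF for 72 h. Proliferation read by 4 h MTT reduction, absorbance 595. IC50 from seven-point 0.5-log curves in triplicate; screening % inhibition normalised to VEGF-only and starvation controls.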

HUVEC [2] = experiment: bFGF Huvec; type: cell-based; conditions: Homo sapiens
FGF-R1 = target: T1, FGF-R1 (Homo sapiens, UniProt P11362, C488A/C584S/L457V); experiment: Fibroblast Growth Factor (FGF-R) spectrophotometric assay; type: biochemical; conditions: for inhibition at 1 µM: 1 μM compound, read-out: FGF-P % inhibit @1 μM
T1 construct: starting from the endogenous methionine residue 456 to glutamate 766; made in house; host or cells: baculovirus vector expression system
In short: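 Baculovirus-expressed human FGF-R1 kinase domain (Met456–Glu766; L457V/C488A/C584S), 50 nM, with 2 mM ATP and 15 mM poly(E4Y1) in HEPES pH 7.5. ADP formation coupled via PK/LDH to NADH oxidation, read as A340 decrease. Ki from activity across varying compound concentrations.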

LCK = target: T2, LCK (Homo sapiens, UniProt P06239, C224D/P223M); experiment: Lymphocyte-Specific Protein-Tyrosine Kinase (LCK) spectrophotometric assay; type: biochemical; conditions: 1 μM compound; read-out: LckP* % inhibit @1 μM
T2 construct: starting from amino acid residue 223 to the end of the protein at residue 509; made in house; host or cells: insect cells

HUVEC [3] = experiment: HUVEC + albumin proliferation; type: cell-based; conditions: Homo sapiens, 72 h, with albumin
Protocol: This assay determines the ability of a test compound to inhibit the growth factor-stimulated proliferation of human umbilical vein endothelial cells (“HUVEC”). HUVEC cells (passage 3–4, Clonetics, Corp.) were thawed into EGM2 culture medium (Clonetics Corp) in T75 flasks. Fresh EGM2 medium was added to the flasks 24 hours later. Four or five days later, cells were exposed to another culture medium (F12K medium supplemented with 10% fetal bovine serum (FBS), 60 μg/mL endothelial cell growth supplement (ECGS), and 0.1 mg/mL heparin). Exponentially-growing HUVEC cells were used in experiments thereafter. Ten to twelve thousand HUVEC cells were plated in 96-well dishes in 100 μl of rich, culture medium (described above). The cells were allowed to attach for 24 hours in this medium. The medium was then removed by aspiration and 105 μl of starvation media (F12K+1% FBS) was added to each well. After 24 hours, 15 μl of test agent dissolved in 1% DMSO in starvation medium or this vehicle alone was added into each treatment well; the final DMSO concentration was 0.1%. One hour later, 30 μl of VEGF (30 ng/mL) in starvation media was added to all wells except those containing untreated controls; the final VEGF concentration was 6 ng/mL. Cellular proliferation was quantified 72 hours later by MTT dye reduction, at which time cells were exposed for 4 hours MTT (Promega Corp.). Dye reduction was stopped by addition of a stop solution (Promega Corp.) and absorbance at 595λ was determined on a 96-well spectrophotometer plate reader.
IC50 values were calculated by curve-fitting the response of A^595 to various concentrations of the test agent; typically, seven concentrations separated by 0.5 log were employed, with triplicate wells at each concentration. For screening compound library plates, one or two concentrations (one well per concentration) were employed, and the % inhibition was calculated by the following formula: % inhibition=(control−test)[…](control−starvation) where

[4] = target: T3, phosphorylated VEGF-R2Δ50 (Homo sapiens, UniProt P35968, DEL940-989/E990V); experiment: VEGF-R2 coupled spectrophotometric (FLVK-P) assay, phosphorylated construct; type: biochemical; conditions: Ki (nM)
T3 construct: VEGF-R2Δ50 contains residues 806–939 and 990–1171; made in house; host or cells: baculovirus/insect cell system
From the text: This construct determines the ability of a test compound to inhibit tyrosine kinase activity. A construct (VEGF-R2Δ50) of the cytosolic domain of human vascular endothelial growth factor receptor 2 (VEGF-R2) lacking the 50 central residues of the 68 residues of the kinase insert domain was expressed in a baculovirus/insect cell system. Of the 1356 residues of full-length VEGF-R2, VEGF-R2Δ50 contains residues 806–939 and 990–1171, and also one point mutation (E99OV) within the kinase insert domain relative to wild-type VEGF-R2. Autophosphorylation of the purified construct was performed by incubation of the enzyme at a concentration of 4 μM in the presence of 3 mM ATP and 40 mM MgCl2 in 100 mM HEPES, pH 7.5, containing 5% glycerol and 5 mM DTT, at 4° C. for 2 h. […] See Parast et al., Biochemistry, 37,16788–16801 (1998).
The production of ADP from ATP that accompanies phosphoryl transfer was coupled to oxidation of NADH using phosphoenolpyruvate (PEP) and a system having pyruvate kinase (PK) and lactic dehydrogenase (LDH). The oxidation of NADH was monitored by following the decrease of absorbance at 340 nm (e340=6.22 cm^−1 mM^−1) using a Beckman DU 650 spectrophotometer. […] Ki values were determined by measuring enzyme activity in the presence of varying concentrations of test compounds. The data were analyzed using Enzyme Kinetic and Kaleidagraph software.

T2 sequence (P06239 223-509 P223M/C224D): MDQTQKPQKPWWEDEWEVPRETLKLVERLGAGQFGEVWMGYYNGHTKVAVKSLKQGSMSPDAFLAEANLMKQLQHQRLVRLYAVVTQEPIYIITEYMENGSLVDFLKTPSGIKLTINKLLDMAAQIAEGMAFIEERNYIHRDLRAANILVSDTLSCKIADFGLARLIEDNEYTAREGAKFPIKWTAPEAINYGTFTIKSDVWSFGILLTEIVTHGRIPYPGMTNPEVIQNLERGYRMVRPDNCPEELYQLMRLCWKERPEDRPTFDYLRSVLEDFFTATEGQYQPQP
T1 sequence (P11362 456-766 L457V/C488A/C584S): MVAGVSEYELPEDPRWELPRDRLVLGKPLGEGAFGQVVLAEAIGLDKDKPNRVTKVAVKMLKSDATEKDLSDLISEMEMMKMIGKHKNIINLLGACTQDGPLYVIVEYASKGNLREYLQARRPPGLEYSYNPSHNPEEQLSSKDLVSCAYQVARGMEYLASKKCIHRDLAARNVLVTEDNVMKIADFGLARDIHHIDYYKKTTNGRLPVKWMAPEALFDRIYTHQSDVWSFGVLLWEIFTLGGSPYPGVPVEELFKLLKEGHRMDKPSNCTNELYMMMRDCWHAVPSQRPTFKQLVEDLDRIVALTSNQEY
T3 sequence (P35968 with tags, fused parts or gaps DEL940-989/E990V limits assumed): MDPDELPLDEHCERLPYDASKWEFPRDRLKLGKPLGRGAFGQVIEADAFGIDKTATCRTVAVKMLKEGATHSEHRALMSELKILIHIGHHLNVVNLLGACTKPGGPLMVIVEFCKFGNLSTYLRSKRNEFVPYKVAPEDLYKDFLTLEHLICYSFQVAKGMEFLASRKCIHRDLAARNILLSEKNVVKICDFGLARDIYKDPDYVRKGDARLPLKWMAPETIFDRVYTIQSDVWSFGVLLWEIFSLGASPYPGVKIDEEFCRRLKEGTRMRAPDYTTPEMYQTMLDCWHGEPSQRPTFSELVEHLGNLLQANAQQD

Compound	IC50 [1] [nM]	IC50 (HUVEC [2]) [nM]	inhibition at 1 µM (FGF-R1) [%]	inhibition at 1 µM (LCK) [%]	IC50 (HUVEC [3]) [nM]	Ki [4] [nM]	Ki (FGF-R1; second value in the FGF-P cell, Ki) [nM]
O=C(NCC#CCO)c1ccccc1Nc1ccc2c(/C=C/c3ccccn3)n[nH]c2c1 [Example 64, N-(4-Hydroxy-but-2-ynyl)-2-[3-(2-pyridin-2-yl-vinyl)-1H-indazol-6-ylamino]-benzamide]	0.15	1250	39	–	–	–	–
O=C(NC1CCC1)c1ccccc1Nc1ccc2c(/C=C/c3ccccn3)n[nH]c2c1 [Example 3(j), N-Cyclobutyl-2-[3-((E)-2-pyridin-2-yl-vinyl)-1H-indazol-6-ylamino]-benzamide]	1.7	–	43	17	–	–	–
COc1ccccc1CNC(=O)c1ccccc1Nc1ccc2c(/C=C/c3ccccn3)n[nH]c2c1 [Example 3(h), N-(2-Methoxy-benzyl)-2-[3-((E)-2-pyridin-2-yl-vinyl)-1H-indazol-6-ylamino]-benzamide]	1.6	–	85	37	–	–	–
C#CCNC(=O)c1ccccc1Nc1ccc2c(/C=C/c3cc(C)ccn3)n[nH]c2c1 [Example 32, 2-{3-[(E)-2-(4-Methyl-pyridin-2-yl)-vinyl]-1H-indazol-6-ylamino}-N-prop-2-ynyl-benzamide]	0.61	–	70	–	–	–	–
C=C(C)CNC(=O)c1ccccc1Nc1ccc2c(/C=C/c3ccccn3)n[nH]c2c1 [Example 3(k), N-(2-Methyl-allyl)-2-[3-((E)-2-pyridin-2-yl-vinyl)-1H-indazol-6-ylamino]-benzamide]	0.8	1000	36	19	–	–	–
O=C(NC1CC1)c1ccccc1Nc1ccc2c(/C=C/c3ccccn3)n[nH]c2c1 [Example 3(d), N-Cyclopropyl-2-[3-((E)-2-pyridin-2-yl-vinyl)-1H-indazol-6-ylamino]-benzamide]	0.4	147	80	11	7.5	–	–
Cc1ccnc(/C=C/c2n[nH]c3cc(Nc4ccccc4C(=O)NC4CC4)ccc23)c1 [Example 2(h), N-Cyclopropyl-2-{3-[(E)-2-(4-methyl-pyridin-2-yl)-vinyl]-1H-indazol-6-ylamino}-benzamide]	1.6	70	75	–	–	–	–
Cc1cc(C)nc(/C=C/c2n[nH]c3cc(Nc4ccccc4C(=O)NCC#CCO)ccc23)c1 [Example 10, 2-{3-[(E)-2-(4,6-Dimethyl-pyridin-2-yl)-vinyl]-1H-indazol-6-ylamino}-N-(4-hydroxy-but-2-ynyl)-benzamide]	0.67	–	38	–	–	6.07	197
